Earlier results on five compounds are cited in patent US20090155357A1, “Alcohol Resistant Pharmaceutical Formulations” (priority 2005, published 2009).

The conditions of data set [1]: solubility in water.
For data set [2] the following is noted: solubility in alcohol.

Take `[O]=[Mg]` [Magnesium Oxide]: the Water entry in data set [1] is listed as “I”. The Alcohol entry in data set [2] was “I”.

For the compound “Dibasic/Tribasic calcium phosphate dihydrate”, the Water entry in data set [1] was “I”. Also, the Alcohol entry in data set [2] is “I”.

With Glyceryl Behanate, the Water entry in data set [1] is “I”. For the same compound, the Alcohol result in data set [2] was “I”.

In the case of `CCCCCCCCCCCCCCCC(=O)OCC(O)CO` (stereo not shown) [Glyceryl Palmitate], the Water entry in data set [1] is “I”. The Alcohol result in data set [2] was “I”.

As for `CCCCCCCCCCCCCCCCCC(=O)OCC(O)CO` (stereo not shown) [Glyceryl Monostearate], in data set [1], the Water result was “I”. In addition, in data set [2], the Alcohol result is “I”.
